Experimental data as given in patent publication US20070072829A1, “Fungicidal composition comprising a pyridylmethylbenzamide derivative and a sulfamide derivative” (priority 2003, published 2007).

Test system: Plasmopara viticola
Assay: 72 h preventive treatment of vine plants against vine downy mildew, Abbott efficacy, Tammes and Colby analysis
Assay type: in vivo
[1] = Compound Ia share of the mixture, or Compound Ia alone
[2] = tolylfluanid share of the mixture, or tolylfluanid alone

Structure (SMILES) | ED70: Practical doses for 70% efficacy, dose of Compound Ia [1] | ED90: Practical doses for 90% efficacy, dose of Compound Ia [1] | ED70: Practical doses for 70% efficacy, dose of tolylfluanid [2] | ED90: Practical doses for 90% efficacy, dose of tolylfluanid [2]
O=C(NCc1ncc(C(F)(F)F)cc1Cl)c1c(Cl)cccc1Cl [Compound Ia, 2,6-dichloro-N-{[3-chloro-5-(trifluoromethyl)-2-pyridinyl]methyl}benzamide] | 27 µg/mL | 65 µg/mL | – | –
Cc1ccc(N(SC(F)(Cl)Cl)S(=O)(=O)N(C)C)cc1 [Tolylfluanid, N-dichlorofluoromethylthio-N′,N′-dimethyl-N-p-tolylsulfamide] | – | – | 231.4 µg/mL | 533.6 µg/mL
